These results are taken from patent US20240059703A1 (AMGEN INC., priority 2021, published 2024).

The subject of experiment [1] is MIA PaCa-2 (human pancreatic carcinoma) cells. Kind of experiment: Cell Viability Assay (CellTiter-Glo), MIA PaCa-2. Format: cell-based. The following applies: Homo sapiens, MIA PaCa-2, 72 h. As to the method: Serially-diluted compound or DMSO was added to the cells, and plates were incubated at 37° C., 5% CO2 for 72 h. Cell viability was measured using a CellTiter-Glo® Luminescent Cell Viability Assay kit (Promega) according to the manufacturer's protocol. The luminescence signal of treated samples was normalized to DMSO control, and data were analyzed using a 4-parameter logistic model to calculate IC50 values.

In the next experiment the target is KRAS G12C (Homo sapiens (Human), UniProt P01116, C118A/G12C). Kind of experiment: 2 h coupled exchange assay. Format: biochemical. Particulars: Avg 2 h Coupled exchange IC50, 2 h compound pre-incubation. As to the method:
The term “2 h coupled exchange assay” or “20 h coupled exchange assay” as used herein refers to the assay described in the Section entitled “BIOLOGICAL EVALUATION.”

Experiment [2] concerns A549 (human lung carcinoma) cells. The experiment can be described thus: Cell Viability Assay (CellTiter-Glo), A549. Format: cell-based. Particulars: Homo sapiens, A549, 72 h. In short, it runs like this: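 RPMI 1640/10% FBS; seed 1.67E+04 cells/mL, o/n 37° C., 5% CO2; serial-dilution cmpd 72 h; CellTiter-Glo luminescence vs DMSO; 4-parameter logistic fit → IC50.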
Where [3] appears, read: SOS-mediated nucleotide exchange.

Molecules are shown by their SMILES. Bounds are passed on as bounds.

Sequence of KRAS G12C (P01116 other isoform, or with tags, fused parts or gaps G12C/C118A): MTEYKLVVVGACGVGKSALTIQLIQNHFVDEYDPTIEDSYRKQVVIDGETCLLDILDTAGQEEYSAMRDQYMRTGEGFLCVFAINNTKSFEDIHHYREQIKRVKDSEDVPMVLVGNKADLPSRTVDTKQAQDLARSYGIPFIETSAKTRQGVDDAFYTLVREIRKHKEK

For `C=CC(=O)N1CC2(CCN(c3nc4c(c(-c5c(C)ccc6[nH]ncc56)c3C#N)[C@@H]3CC[C@H]4C3)C2)C1` (single isomer, unassigned) [Example 14-4], the IC50 is 9 nM in experiment [1], 17 nM on KRAS G12C (setting [3]) and above 5000 nM in experiment [2].

Consider `C=CC(=O)N1CC2(CCN(c3nc4c(c(-c5c(C)ccc6[nH]ncc56)c3C#N)[C@@H]3CC[C@H]4C3)C2)C1` (single isomer, unassigned) [Example 14-7], for which the IC50 in experiment [1] worked out at 6 nM; against KRAS G12C (setting [3]) it was 14 nM; in experiment [2] it was 5570 nM.

For the compound `C=CC(=O)N1CC2(CCN(c3nc4c(c(-c5cc(O)ccc5C)c3C#N)[C@@H]3CC[C@H]4C3)C2)C1` (single isomer, unassigned) [Example 14-11], the values for the IC50 (in experiment [1]; against KRAS G12C (setting [3]); in experiment [2]) were 149 nM, 38 nM and above 5000 nM, respectively.

With `C=CC(=O)N1CC2(CCN(c3nc4c(c(-c5c(C)ccc6cnn(C)c56)c3C#N)[C@@H]3CC[C@H]4C3)C2)C1` (single isomer, unassigned) [Example 14-15], the IC50 in experiment [1] is 68 nM; at KRAS G12C (setting [3]), 49 nM; in experiment [2] it was above 5000 nM.

`C=CC(=O)N1CC2(CCN(c3nc4c(c(-c5c(C)ccc6cnn(C)c56)c3C#N)[C@@H]3CC[C@H]4C3)C2)C1` (single isomer, unassigned) [Example 14-17]: the IC50 in experiment [1] is 51 nM; at KRAS G12C (setting [3]), 22 nM; in experiment [2], above 5000 nM.

`C=CC(=O)N1CC2(CCN(c3nc4c(c(-c5cccc6cn[nH]c56)c3C#N)C[C@H]3C[C@@H]4C3(C)C)C2)C1` (single isomer, unassigned) [Example 14-29]: the IC50 was 143 nM in experiment [1], 58 nM at KRAS G12C and above 5000 nM in experiment [2].

In the case of `C=CC(=O)N1CC2(CCN(c3nc4c(c(-c5cc(O)ccc5C)c3C)COC(C)(C)C4)C2)C1` (single isomer, unassigned) [Example 14-31, (M)-1-(6-(4-(5-hydroxy-2-methylphenyl)-3,7,7-trimethyl-7,8-dihydro-5H-pyrano[4,3-b]pyridin-2-yl)-2,6-diazaspiro[3.4]octan-2-yl)-2-propen-1-one], the figures for the IC50 (in experiment [1]; against KRAS G12C; in experiment [2]) were 105 nM, 106 nM and above 5000 nM, respectively.

As for `C=CC(=O)N1CC2(CCN(c3nc4c(c(-c5c(C)ccc6[nH]ncc56)c3C)COC(C)(C)C4)C2)C1` (single isomer, unassigned) [Example 14-33, (P)-1-(6-(3,7,7-trimethyl-4-(5-methyl-1H-indazol-4-yl)-7,8-dihydro-5H-pyrano[4,3-b]pyridin-2-yl)-2,6-diazaspiro[3.4]octan-2-yl)-2-propen-1-one], the IC50 in experiment [1] was 32 nM; against KRAS G12C, 44 nM; in experiment [2], above 5000 nM.

`C=CC(=O)N1CC2(CCN(c3nc4c(c(-c5ccc(F)c6sc(N)nc56)c3C)COC(C)(C)C4)C2)C1` (single isomer, unassigned) [Example 14-38, (P)-1-(6-(4-(2-amino-7-fluoro-1,3-benzothiazol-4-yl)-3,7,7-trimethyl-7,8-dihydro-5H-pyrano[4,3-b]pyridin-2-yl)-2,6-diazaspiro[3.4]octan-2-yl)-2-propen-1-one]: the IC50 in experiment [1] is 123 nM; against KRAS G12C, 63 nM; in experiment [2], above 5000 nM.

With `C=CC(=O)N1CC2(CCN(c3nc4c(c(-c5c(C)c(C)cc6cnn(C)c56)c3C)COC(C)(C)C4)C2)C1` (single isomer, unassigned) [Example 14-41, (P)-1-(6-(3,7,7-trimethyl-4-(1,5,6-trimethyl-1H-indazol-7-yl)-7,8-dihydro-5H-pyrano[4,3-b]pyridin-2-yl)-2,6-diazaspiro[3.4]octan-2-yl)-2-propen-1-one], the values for the IC50 (in experiment [1]; at KRAS G12C; in experiment [2]) were 408 nM, 66 nM and above 5000 nM, respectively.

Regarding `C=CC(=O)N1CC2(CCN(c3nc4c(c(-c5cccc6cc(O)ccc56)c3C)COC(C)(C)C4)C2)C1` (single isomer, unassigned) [Example 14-44, (P)-1-(6-(4-(6-hydroxy-1-naphthalenyl)-3,7,7-trimethyl-7,8-dihydro-5H-pyrano[4,3-b]pyridin-2-yl)-2,6-diazaspiro[3.4]octan-2-yl)-2-propen-1-one], the IC50 in experiment [1] was 44 nM; at KRAS G12C, 71 nM; in experiment [2], above 5000 nM.

As to `C=CC(=O)N1CC2(CCN(c3nc4c(c(-c5c(C)ccc6cn[nH]c56)c3C#N)C[C@H]3C[C@@H]4C3(C)C)C2)C1` (single isomer, unassigned) [Example 14-51], the values for the IC50 (in experiment [1]; on KRAS G12C; in experiment [2]) were 18 nM, 11 nM and above 5000 nM, respectively.

Consider `C=CC(=O)N1CC2(CCN(c3nc4c(c(-c5ccc(F)c6sc(N)nc56)c3C#N)COC(C)(C)C4)C2)C1` (single isomer, unassigned) [Example 14-57, (P)-4-(2-amino-7-fluoro-1,3-benzothiazol-4-yl)-7,7-dimethyl-2-(2-(2-propenoyl)-2,6-diazaspiro[3.4]octan-6-yl)-7,8-dihydro-5H-pyrano[4,3-b]pyridine-3-carbonitrile], for which the IC50 was 71 nM in experiment [1], 40 nM against KRAS G12C and above 5000 nM in experiment [2].

`C=CC(=O)N1CC2(CCN(c3nc4c(c(-c5cc(O)ccc5C)c3F)C[C@H]3C[C@@H]4C3(C)C)C2)C1` (single isomer, unassigned) [Example 14-59]: the values for the IC50 (in experiment [1]; at KRAS G12C; in experiment [2]) were 293 nM, 25 nM and above 5000 nM, respectively.

Take `C=CC(=O)N1CC2(CCN(c3nc4c(c(-c5cc(O)cc6ccccc56)c3F)COC(C)(C)C4)C2)C1` (single isomer, unassigned) [Example 14-70, (P)-1-(6-(3-fluoro-4-(3-hydroxy-1-naphthalenyl)-7,7-dimethyl-7,8-dihydro-5H-pyrano[4,3-b]pyridin-2-yl)-2,6-diazaspiro[3.4]octan-2-yl)-2-propen-1-one]: the results for the IC50 (in experiment [1]; against KRAS G12C; in experiment [2]) were 82 nM, 68 nM and above 5000 nM, respectively.

Take `C=CC(=O)N1CC2(CCN(c3nc4c(c(-c5c(C)ccc6[nH]ncc56)c3F)C[C@H]3C[C@@H]4C3(C)C)C2)C1` (single isomer, unassigned) [Example 14-73]: the IC50 is 11 nM in experiment [1], 10 nM on KRAS G12C and above 5000 nM in experiment [2].

`C=CC(=O)N1CC2(CCN(c3nc4c(c(-c5c(C)ccc6cn[nH]c56)c3C#N)COC(C)(C)C4)C2)C1` (single isomer, unassigned) [Example 14-81, (P)-7,7-dimethyl-4-(6-methyl-1H-indazol-7-yl)-2-(2-(2-propenoyl)-2,6-diazaspiro[3.4]octan-6-yl)-7,8-dihydro-5H-pyrano[4,3-b]pyridine-3-carbonitrile]: the 50% inhibitory concentration (IC50) in experiment [1] was 92 nM; against KRAS G12C, 45 nM; in experiment [2], above 5000 nM.

As to `C=CC(=O)N1CC2(CCN(c3nc4c(c(-c5c(C)c(Cl)cc6cnn(C)c56)c3C)COC(C)(C)C4)C2)C1` (single isomer, unassigned) [Example 14-89, (P)-1-(6-(4-(5-chloro-1,6-dimethyl-1H-indazol-7-yl)-3,7,7-trimethyl-7,8-dihydro-5H-pyrano[4,3-b]pyridin-2-yl)-2,6-diazaspiro[3.4]octan-2-yl)-2-propen-1-one], the IC50 was determined as 80 nM in experiment [1], 81 nM on KRAS G12C and 1800 nM in experiment [2].

As to `C=CC(=O)N1CC2(CCN(c3nc4c(c(-c5c(C)ccc6cn[nH]c56)c3C)CC[C@H](c3c(C)cnn3C)C4)C2)C1` (single isomer, unassigned) [Example 14-97], the results for the IC50 (in experiment [1]; against KRAS G12C; in experiment [2]) were 254 nM, 208 nM and 10000 nM, respectively.

Consider `C=CC(=O)N1CC2(CCN(c3nc4c(c(-c5c(C)ccc6cnn(C)c56)c3C)CC[C@@H](c3c(C)cnn3C)C4)C2)C1` (single isomer, unassigned) [Example 14-98], for which the IC50 was 80 nM in experiment [1], 71 nM at KRAS G12C and above 5000 nM in experiment [2].

For `C=CC(=O)N1CC2(CCN(c3nc4c(c(-c5c(C)ccc6cnn(C)c56)c3C)COC(C)(C)C4)C2)C1` (single isomer, unassigned) [Example 14-99, (P)-1-(6-(4-(1,6-dimethyl-1H-indazol-7-yl)-3,7,7-trimethyl-7,8-dihydro-5H-pyrano[4,3-b]pyridin-2-yl)-2,6-diazaspiro[3.4]octan-2-yl)-2-propen-1-one], the results for the IC50 (in experiment [1]; at KRAS G12C; in experiment [2]) were 80 nM, 71 nM and above 5000 nM, respectively.

With `C=CC(=O)N1CC2(CCN(c3nc4c(c(-c5cc(O)cc6ccccc56)c3C)COC(C)(C)C4)C2)C1` (single isomer, unassigned) [Example 14-103, (M)-1-(6-(4-(3-hydroxy-1-naphthalenyl)-3,7,7-trimethyl-7,8-dihydro-5H-pyrano[4,3-b]pyridin-2-yl)-2,6-diazaspiro[3.4]octan-2-yl)-2-propen-1-one], the IC50 in experiment [1] amounted to 32 nM; against KRAS G12C, 45 nM; in experiment [2], 7620 nM.

As a reminder, the IC50 is the point on the concentration scale where inhibition reaches its midpoint. A lower IC50 goes with greater potency.
